Read-outs that look alike come from different tables or passages of the source.
Key:
Set-up in all cases: species or system SD rats
serotonin S2 receptor = target: T1, serotonin S2 receptor (Rattus norvegicus, UniProt P14842); test: serotonin S2 receptor binding test ([3H] Ketanserin Binding Test); settings: 1 nM [3H] Ketanserin, rat cortex, 37° C., 15 minutes
T1 construct: The receptor fraction prepared from the cortex was molten and suspended; from tissue; host or cells: cerebral cortex of SD rats (membrane fraction)
Method in brief: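 Rat (SD, 6–8 weeks) cortical membranes in 50 mM Tris-HCl pH 7.4 were incubated with 1 nM [3H]ketanserin for 15 min at 37 °C, then filtered and counted. Nonspecific binding was defined with methysergide. IC50 was obtained by probit analysis and converted to Ki using the Scatchard-derived Kd.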

dopamine D2 receptor = target: T2, dopamine D2 receptor (Rattus norvegicus, UniProt P61169); test: dopamine D2 receptor binding test ([3H] Spiperone Binding Test); settings: 1 nM [3H] Spiperone, rat corpus striatum, room temperature, 60 minutes
T2 construct: the receptor fraction prepared from the corpus striatum was molten and suspended; from tissue; host or cells: corpus striatum of SD rats (membrane fraction)
Method in brief: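 Rat (SD, 6–8 weeks) corpus striatum membranes in 50 mM Krebs-Tris pH 7.4 were incubated with 1 nM [3H]spiperone at room temperature for 60 minutes, with nonspecific binding defined by excess spiperone. IC50 came from probit analysis; Ki was derived using radioligand concentration and Scatchard Kd.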

adrenergic α1 receptor = adrenergic α1 receptor binding test ([3H] Prazosin Binding Test); settings: 1 nM [3H] Prazosin, rat cortex, room temperature, 60 minutes
Method in brief: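 Rat (SD, 6-8 weeks) cerebral cortex membranes in 50 mM Tris-HCl pH 7.4 incubated with 1 nM [3H]prazosin for 60 min at room temperature; nonspecific binding defined with phentolamine. IC50 by probit method, converted to Ki using radioligand concentration and Scatchard-derived Kd.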

[1] = read-out: Ki value, dopamine D2 receptor

T2 sequence (P61169 whole entry): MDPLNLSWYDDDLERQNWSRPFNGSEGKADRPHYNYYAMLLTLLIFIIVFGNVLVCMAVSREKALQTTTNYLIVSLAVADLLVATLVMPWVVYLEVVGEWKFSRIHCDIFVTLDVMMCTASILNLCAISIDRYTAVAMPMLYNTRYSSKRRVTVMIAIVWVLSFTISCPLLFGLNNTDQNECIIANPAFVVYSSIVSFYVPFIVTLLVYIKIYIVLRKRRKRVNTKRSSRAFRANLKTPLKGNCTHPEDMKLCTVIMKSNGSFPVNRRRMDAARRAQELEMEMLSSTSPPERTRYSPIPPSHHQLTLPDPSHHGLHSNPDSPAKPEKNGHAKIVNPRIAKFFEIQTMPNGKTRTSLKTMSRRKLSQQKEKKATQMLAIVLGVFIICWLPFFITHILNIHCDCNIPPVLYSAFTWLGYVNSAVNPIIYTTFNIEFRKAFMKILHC
T1 sequence (P14842 whole entry): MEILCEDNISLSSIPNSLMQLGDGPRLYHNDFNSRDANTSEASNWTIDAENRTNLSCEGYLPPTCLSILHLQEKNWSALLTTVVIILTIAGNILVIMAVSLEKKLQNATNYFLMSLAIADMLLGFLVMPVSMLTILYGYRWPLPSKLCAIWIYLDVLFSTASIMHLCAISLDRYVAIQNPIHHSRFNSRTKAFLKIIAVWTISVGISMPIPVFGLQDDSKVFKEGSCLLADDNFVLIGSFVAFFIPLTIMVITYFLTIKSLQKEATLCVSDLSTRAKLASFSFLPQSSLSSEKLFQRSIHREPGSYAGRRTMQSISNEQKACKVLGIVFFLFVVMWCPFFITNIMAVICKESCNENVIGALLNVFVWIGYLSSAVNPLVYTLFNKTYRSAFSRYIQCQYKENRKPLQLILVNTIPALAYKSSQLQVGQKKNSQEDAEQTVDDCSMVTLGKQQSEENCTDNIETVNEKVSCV

Row | SMILES | Ki (serotonin S2 receptor) [nM] | Ki (dopamine D2 receptor; Ki value, dopamine D2 receptor) [nM] | Ki (adrenergic α1 receptor) [nM] | Ki (dopamine D2 receptor; [1]) [nM]
1 | CCCc1cc(N2CCN(CCF)CC2)cc(-c2ccc(F)cc2)c1OC [Example 72, 1-(2-Fluoroethyl)-4-[3-(4-fluorophenyl)-4-methoxy-5-propyl]phenylpiperazine] | 108 | 50.3 | 270 | –
2 | COc1c(-c2ccccc2)cc(N2CCN(CCO)CC2)cc1-c1ccccc1 [Example 64] | 284 | – | 459 | 384
3 | CCN1CCN(c2cc(-c3ccccc3C)c(Cl)c(S(C)(=O)=O)c2)CC1 [Example 158, 1-Ethyl-4-[3-(2-tolyl)-4-chloro-5-methanesulfonyl]phenylpiperazine] | 124 | – | > 1000 | 12.4
4 | CCCS(=O)(=O)NCc1cc(N2CCN(CC)CC2)cc(-c2ccccc2C)c1Cl [Example 192, 1-Ethyl-4-[3-(2-tolyl)-4-chloro-5-propanesulfonylaminomethyl]phenylpiperazine] | 374 | – | 550 | > 100
5 | CCC(F)c1cc(N2CCN(CC)CC2)cc(-c2ccccc2COC)c1Cl (stereo not drawn) [Example 145, 1-Ethyl-4-[3-(2-methoxymethylphenyl)-4-chloro-5-(1-fluoropropyl)]phenylpiperazine] | 72.5 | – | > 1000 | 8.28
6 | CCOC(=O)CCc1cc(N2CCN(CC)CC2)cc(-c2ccccc2)c1OC [Example 111, 1-Ethyl-4-[3-phenyl-4-methoxy-5-(2-ethoxycarbonylethyl)]phenylpiperazine] | 58 | – | 210 | 41.9
7 | CCN1CCN(c2cc(NS(=O)(=O)CCCCl)c(Cl)c(-c3ccccc3C)c2)CC1 [Example 165] | 6.1 | – | > 1000 | 0.74
8 | CCN1CCN(c2cc(-c3ccccc3C)c(Cl)c(N3CCCC3)c2)CC1 [Example 177] | > 100 | – | > 1000 | > 100
9 | CCS(=O)(=O)c1cc(N2CCN(CCc3ccncc3)CC2)cc(-c2ccc(F)cc2)c1OC [Example 201, 1-[2-(4-Pyridyl)ethyl]-4-[3-(4-fluorophenyl)-4-methoxy-5-ethanesulfonyl]phenylpiperazine] | 3.17 | – | 12.9 | 19.7
10 | CCCC(O)c1cc(N2CCN(C)CC2)cc(-c2ccccc2C)c1Cl (stereo not drawn) [Example 174] | 48.7 | – | > 1000 | 31.8
11 | CCCC(F)c1cc(N2CCN(CC)CC2)cc(-c2ccccc2Cl)c1Cl (stereo not drawn) [Example 54, 1-Ethyl-4-[3-(2-chlorophenyl)-4-chloro-5-(1-fluorobutyl)]phenylpiperazine] | 37.5 | – | > 1000 | 6.06
12 | CCN1CCN(c2cc(NS(=O)(=O)CC)c(Cl)c(-c3ccccc3Cl)c2)CC1 [Example 31, 1-Ethyl-4-[3-(2-chlorophenyl)-4-chloro-5-ethanesulfonylamino]phenylpiperazine] | 12.4 | – | 36.1 | 0.69
13 | COc1c(C(=O)Cc2ccccc2)cc(N2CCNCC2)cc1-c1ccccc1 [Example 125, 1-(3-phenyl-4-methoxy-5-phenylacetyl)phenylpiperazine] | 1.49 | – | > 1000 | 101
14 | CCN1CCN(c2cc(-c3ccccc3)c(OC(C)C)c(-c3ccccc3)c2)CC1 [Example 60, 1-Ethyl-4-(3,5-diphenyl-4-isopropxy)phenylpiperazine] | > 1000 | – | > 1000 | > 1000
15 | CCN1CCN(c2cc(-c3ccccc3C)c(Cl)c(C(F)CC(C)C)c2)CC1 (stereo not drawn) [Example 51, 1-Ethyl-4-[3-(2-tolyl)-4-chloro-5-(1-fluoro-3-methylbutyl)]phenylpiperazine] | 164 | – | > 1000 | 27.2
16 | CCN1CCN(c2cc(NS(=O)(=O)CC(F)(F)F)c(Cl)c(-c3ccccc3Cl)c2)CC1 [Example 163, 1-Ethyl-4-[3-(2-chlorophenyl)-4-chloro-5-(2,2,2-trifluoroethyl)sulfonylamino]phenylpiperazine] | 63.6 | – | 195 | 10.2
17 | CCC(F)c1cc(N2CCN(CCO)CC2)cc(-c2ccccc2C)c1Cl (stereo not drawn) [Example 26, 1-(2-Hydroxyethyl)-4-[3-(2-tolyl)-4-chloro-5-(1-fluloropropyl)]phenylpiperazine] | 21.6 | – | > 1000 | 2.67
18 | CCS(=O)(=O)Nc1cc(N2CCN(C)CC2)cc(-c2ccccc2C)c1Cl [Example 28, 1-Methyl-4-[3-(2-tolyl)-4-chloro-5-ethanesulfonylamino]phenylpiperazine] | 5.67 | – | 50.8 | 1.6

Source: patent US6281214A, “Biphenyl derivatives” (Eisai Co., Ltd, priority 1994, dated 2001)
